Patent US20140228435A1, “COMPOSITION AND METHOD OF SYNTHESIZING A BIOMOLECULE AND ITS THERAPEUTICS APPLICATIONS” (priority 2013, published 2014)
Where “and” joins values, the source holds several entries; their conditions need not be identical. Identical values can stand only once. Like-named read-outs stand apart in the source and are kept apart here.

Key:
fatty tissue = test: Triceps skin fold (TSF) thickness by caliper at right mid-upper arm, one-year volunteer trial; assay type: in vivo, human volunteers
Protocol: (§1) According to an embodiment of the embodiments herein, N(omega)′-protonated L-arginine was chemically converted into J-Factor ex-vivo. To prevent synthetic J-factor from damaging the alimentary canal after oral administration, it was formulated at a pH value that is safe for the canal like 7.0 which is the safest pH. Then, converted/synthetic produced ex-vivo J-Factor was orally administrated to a small group of 11 volunteers for one year. Each volunteers were given 0.5 mg per 10 days (=1.5 mg/month) and photographs were taken in each case to record the changes in their faces and heads.
(§2) In addition, to eliminate other factors probably influencing results during the trial, they were prevented from exercising and changing previous food schedule such as meat except the J-Factor. Their intake of meat was at least 200 gram per day in the food schedule before the trial and wouldn't change during the trial. Because the amount of N(omega)′-protonated L-arginine in raw meat is more than 1%, their intake of N(omega)′-protonated L-arginine was more than 60000 mg per month through meat without change before and during the trial, which was more than 40000 times the J-Factor intake. Anyway, one-third of N (omega)′-protonated L-arginine is chemically converted into J-Factor and they can't separated from each other. Thus, regardless of food L-arginine, Each volunteer took N(omega)′-protonated L-arginine 3 mg per month together with J-Factor that was less than 1/20000 times the N(omega)′-protonated L-arginine intake through meat without change before and during the trial. Therefore, the physical changes observed in the volunteers weren't caused by N(omega)′-protonated L-arginine.
Anyway, the triceps skin fold (TSF) thickness was measured in millimetres with the caplier at the mid-back of the right mid-upper arm [mid-point between the tip of the shoulder and the tip of the elbow (olecranon process and the acromium)] to evaluate the change in fatty tissue during the trial. The amounts measured and calculated are listed below: […]

[1] = tested on: muscle (muscular hypertrophy); test: Mid-upper arm circumference (MUAC) and muscle circumference (MUAMC), muscular hypertrophy, one-year volunteer trial; assay type: in vivo, human volunteers
Protocol: as §1, §2
It's derived in cm from the MUAC (mid-upper arm circumference) in cm and the TSF (triceps skin fold) in mm according to the formula “MUAMC=MUAC−(π×TSF/10)”. Finally, the following numbers were measured and concluded: […]

eye's central vision = test: Eye's central vision examined with the E-chart, one-year volunteer trial; assay type: in vivo, human volunteers; design: scale not given here; conditions: one value per volunteer
Protocol: as §1, §2
Eye' central vision was examined with the E-chart and the following numbers were measured and concluded: […]

IGF-1mRNA = test: Expression of IGF-1mRNA in fatty tissue of mid-upper arm by real-time RT-PCR; assay type: in vivo, human volunteers
Protocol: as §1
as §2, with “Therefore, the physical changes observed in the volunteers weren't caused by N(omega)′-protonated L-arginine.” left out
It's clear that any composition that stimulates the synthesis and secretion of autocrine-paracrine IGF-1 performs it only through increasing the expression of IGF-1mRNA in the cell. Therefore, the expression of IGF-1mRNA was measured in the fatty tissue at the mid-back of the mid-upperarm of the volunteers by real-time RT-PCR (Reverse transcription-polymerase chain reaction) at the beginning and end of the trial and the following numbers were obtained: […]

[2] = Physical changes observed in volunteers after one year (photographs of faces and heads); assay type: in vivo, human volunteers; conditions: each volunteer after one year of oral J-Factor
Protocol: as §1, §2

[3] = Complications and safety, synthetic J-Factor in the 11 volunteers compared with biosynthetic GH; assay type: in vivo, human volunteers
Protocol: as §1
In fact, all of the above mentioned changes help in preventing or limiting the aging signs. The advantage of using ex-vivo synthesized J-Factor of the embodiments herein when compared to biosynthetic GH is shown in the comparative table below: […]

[4] = Acid dissociation constants (pKa), with van't Hoff temperature calculation; assay type: physicochemical
Protocol: Furthermore, the deprotonation of the guanidinium and N(delta)-protonated diaminomethyleneamino groups is endothermic and reversible. Therefore the results are as follows. • 1—At pH less than 7.48 together with 25° C. or less, the concentration of their deprotonated form in the side chain is too little and insignificant to be chemically considered. • 2—Under physiological conditions (pH 7.40 and 37° C.) of a living body, the concentration of L-2-amino-5-diaminomethyleneamino-pentanoic acid not protonated in the side chain and a extremely weak stimulator for autocrine-paracrine IGF-1, is too little and insignificant to stimulates synthesis and secretion of the IGF-1. • 3—At pH less than 7.48 together with 25° C. or less and under physiological conditions (pH 7.40 and 37° C.), 1-arginine and L-2-amino-5-diaminomethyleneamino-pentanoic acid is practically as protonated in the side chain.
In addition, it has a Pka of 8.39 in the protonated 2-amino group at 37° C. calculated based on the integrated form of the van't Hoff equation and ΔH°=43.8 kj/mol=[…] in the deprotonation of the protonated 2-amino group. Consequently, with respect to/regarding the Henderson-Hasselbalch equation, the formula of the J Factor is as follows: • 1—At 25° C., the dominant structural formula of J-Factor at pH more than 2.17 and less than 9.04 is as follows:
Further, in the conversion of N(omega)′-protonated L-arginine to Larginine and a proton, K (equilibrium constant)=Ka (acid dissociation constant). Consequently, the integrated form of the van't Hoff equation is changed as follows:
Log(Ka2/Ka1)=(ΔH°/R)(1/T1−1/T2)
wherein Ka1 is the acid dissociation constant at absolute temperature T1, Ka2 is the acid dissociation constant at absolute temperature T2. Now, the calculated ratios of Ka2 at 100° C., 75° C., 50° C., 37° C. and 30° C. to Ka1 at 25° C. and their pKa's in the conversion are given below, where pKa is a minus the logarithm of the acid dissociation constant. • 1—At 100° C.: […]

[5] = cited from earlier work
[6] = Second trial (second year): J-Factor withdrawn, unconverted N(omega)′-protonated L-arginine given; assay type: in vivo, human volunteers; conditions: 1.5 mg per 10 days
Protocol: After the first year, the applicant withdrew J-Factor and would give the initial N(omega)′protonated L-arginine (reactant) not converted to J-Factor 1.5 mg per 10 days to each volunteer without any other changes and wouldn't make them aware, in order to better compare the reactant and J-Factor.

[7] = biosynthetic GH, comparison; cited from earlier work
[8] = sum of 11 volunteers, Start to End
[9] = Start to End (one year), one value per volunteer

For `NC(N)=NCCCC(N)C(=O)O` [J-Factor, N(delta)-protonated L-2-amino-5-diaminomethyleneamino-pentanoic acid], the “TSF (mm) End” value (fatty tissue; J-Factor 0.5 mg per 10 days orally, End = one year after the start, one value per volunteer (11)) was 20 mm and 3 mm (2×) and 7 mm and 10 mm (2×) and 12 mm and 14 mm and 13 mm (2×) and 17 mm, the “TSF (mm) Decrease” value (fatty tissue; Start to End (one year), J-Factor 0.5 mg per 10 days orally, one value per volunteer) was 18 mm and 3 mm and 4 mm (2×) and 6 mm and 5 mm (2×) and 7 mm (3×) and 19 mm and the “TSF (mm) Decrease, sum” value (fatty tissue; [8]) was 85 mm. For the same molecule, the “TSF Decrease, percent of sum” value (fatty tissue; [8]) was “(41.7%)”, the “TSF (mm) End, sum” value (fatty tissue; sum of 11 volunteers, one year after the start (Start sum 207)) was 122 mm and the “MUAMC (cm) End” value ([1]; MUAMC=MUAC−(π×TSF/10), one year after the start, one value per volunteer) was 21.2 cm and 24.7 cm and 28.1 cm and 29.5 cm and 19.9 cm and 27.7 cm and 26.9 cm and 27.2 cm and 24.1 cm and 24.0 cm and 21.6 cm. The “MUAMC (cm) increase” value [1, 9] was 1.7 cm and 1.3 cm and 2.0 cm (2×) and 2.1 cm (2×) and 1.1 cm and 2.7 cm and 1.8 cm and 2.8 cm and 2.4 cm, the “MUAC (cm) End” value ([1]; right arm, one year after the start, J-Factor 0.5 mg per 10 days orally, one value per volunteer) was 27.5 cm and 25.6 cm and 29.0 cm and 31.7 cm and 23.0 cm and 31.5 cm and 30.0 cm and 31.6 cm and 28.2 cm and 29.3 cm and 25.9 cm and the “MUAMC (cm) increase, sum” value [1, 8] was 22.0 cm. The “MUAMC increase, percent of sum” value [1, 8] was “(8.7%)”, the “MUAMC (cm) End, sum” value ([1]; sum of 11 volunteers, one year after the start (Start sum 252.9)) was 274.9 cm and the “Left Eye' central vision increase” value (eye's central vision; Start to End (one year)) was “ZERO (2×) and 1 (4×) and 9 and 3 (2×) and 2 (2×)”. The “Right Eye' central vision increase” value (eye's central vision; Start to End (one year)) was “ZERO (3×) and 1 (2×) and 3 and 2 (4×) and 4”, the “Left Eye' central vision End” value (eye's central vision; one year after the start) was 10 (8×) and 9 and 3 and 5 and the “Right Eye' central vision End” value (eye's central vision; one year after the start) was 10 (8×) and 8 and 6 and 3. The “IGF-1 mRNA increase” value (IGF-1mRNA; [9]) was “yes”, the IGF-1 production (IGF-1mRNA; conclusion from one-year trial with ex-vivo synthesized J-Factor) was “stimulated IGF-1 production” and the “IGF-1 mRNA (copy/mg) End” value (IGF-1mRNA; fatty tissue at mid-back of mid-upper arm, one year after the start, one value per volunteer) was 1.8 × 10^7 copy/mg and 7.7 × 10^7 copy/mg and 1.2 × 10^10 copy/mg and 9.2 × 10^6 copy/mg and 7.2 × 10^8 copy/mg and 6.0 × 10^8 copy/mg and 2.1 × 10^9 copy/mg and 1.0 × 10^10 copy/mg and 5.2 × 10^7 copy/mg and 6.3 × 10^6 copy/mg and 1.1 × 10^9 copy/mg. For the same molecule, the “change in fatty tissue e.g. in abdomen” value [2] was “decrease in fatty tissue e.g. in abdomen”, the “eye's central vision” value [2] was “improvement in eye's central vision” and the hair growth [2] was “hair growth”. For the same molecule, the muscular hypertrophy [2] was “muscular hypertrophy”, the “tone and color of facial skin” value [2] was “improved tone and color of facial skin” and the “complications such as joint swelling, carpal tunnel syndrome or joint pain” value ([3]; in the 11 volunteers) was “invention showed no complications”. The antigenicity ([3]; synthetic J-Factor) was “Non-antigenic”, the diabetogenicity ([3]; synthetic J-Factor) was “Non-diabetogenic” and the pKa ([4]; pKa of guanidinium / N(delta)-protonated diaminomethyleneamino group) was 11.7. The pKa ([4]; pKa of protonated 2-amino group) was 8.39, the “pKa of carboxyl group” value ([5]; room temperature (25° C.)) was 2.17 and the “pKa of guanidinium / N(delta)-protonated diaminomethyleneamino group” value ([5]; room temperature (25° C.)) was 12.48. The “pKa of protonated 2-amino group” value ([5]; room temperature (25° C.)) was 9.04.
In the case of `N=C(N)NCCCC(N)C(=O)O` [N(omega)′-protonated L-arginine], the “physical changes during the second year” value ([6]; after withdrawal of J-Factor, volunteers not aware) is reported as “the physical changes would return”, the IGF-1 production ([6]; conclusion from second trial) is reported as “don't stimulated IGF-1 production” and the pKa ([4]; pKa of N(omega)′-protonated guanidino group) is reported as 8.3. The “pKa of guanidinium / N(delta)-protonated diaminomethyleneamino group” value ([5]; room temperature (25° C.)) was 12.48.
For `NC(N)=O` [protonated urea], the pKa ([5]; 25° C., protonated urea) is listed as 0.18.
In the case of “Biosynthetic GH: biosynthetic growth hormone, comparator in the advantage table”, the antigenicity [7] is listed as “Antigenic”, the complications [7] is listed as “Joint swelling Carpal tunnel” and the diabetogenicity [7] is listed as “Diabetogenic”.
